Measurements published in US20080312268A1, “Substituted tricyclic piperidone compounds” (Gruenenthal GMBH, priority 2005, published 2008).
Structures can show the parent of a compound that is named as a salt.

Legend:
5-HT re-uptake = target: T1, 5-HT re-uptake (Rattus norvegicus, UniProt P31652); assay: Measurement of serotonin re-uptake in rat brain synaptosomes; assay type: biochemical; details: synaptosomes (P2 fraction) from medulla and pons region of male rat brains
T1 construct: Synaptosomes from rat brain areas were freshly isolated for the purposes of these in-vitro studies; from tissue; host or cells: rat brain synaptosomes (P2 fraction), medulla and pons of male rats
Protocol: Synaptosomes from rat brain areas were freshly isolated for the purposes of these in-vitro studies. In each case a “P2” fraction was used, which was prepared in accordance with the instructions given by Gray and Whittaker (E. G. Gray und V. P. Whittaker (1962) J. Anat. 76, 79-88). For 5HT uptake these vesicular particles were isolated from the medulla and pons region of male rat brains.
(§1) A detailed description of the method can be found in the literature (M. Ch. Frink, H.-H. Hennies, W. Englberger, M. Haurand and B. Wilffert (1996) Arzneim.-Forsch./Drug Res. 46 (III), 11, 1029-1036).

NA re-uptake = target: T2, NA re-uptake (Rattus norvegicus, UniProt Q63380); assay: Measurement of noradrenalin re-uptake in rat brain synaptosomes; assay type: biochemical; details: synaptosomes (P2 fraction) from hypothalamus of male rat brains
T2 construct: Synaptosomes from rat brain areas were freshly isolated for the purposes of these in-vitro studies; from tissue; host or cells: rat brain synaptosomes (P2 fraction), hypothalamus of male rats
Protocol: Synaptosomes from rat brain areas were freshly isolated for the purposes of these in-vitro studies. In each case a “P2” fraction was used, which was prepared in accordance with the instructions given by Gray and Whittaker (E. G. Gray und V. P. Whittaker (1962) J. Anat. 76, 79-88). For NA uptake these vesicular particles were isolated from the hypothalamus of male rat brains.
as §1

T1 sequence (P31652 whole entry): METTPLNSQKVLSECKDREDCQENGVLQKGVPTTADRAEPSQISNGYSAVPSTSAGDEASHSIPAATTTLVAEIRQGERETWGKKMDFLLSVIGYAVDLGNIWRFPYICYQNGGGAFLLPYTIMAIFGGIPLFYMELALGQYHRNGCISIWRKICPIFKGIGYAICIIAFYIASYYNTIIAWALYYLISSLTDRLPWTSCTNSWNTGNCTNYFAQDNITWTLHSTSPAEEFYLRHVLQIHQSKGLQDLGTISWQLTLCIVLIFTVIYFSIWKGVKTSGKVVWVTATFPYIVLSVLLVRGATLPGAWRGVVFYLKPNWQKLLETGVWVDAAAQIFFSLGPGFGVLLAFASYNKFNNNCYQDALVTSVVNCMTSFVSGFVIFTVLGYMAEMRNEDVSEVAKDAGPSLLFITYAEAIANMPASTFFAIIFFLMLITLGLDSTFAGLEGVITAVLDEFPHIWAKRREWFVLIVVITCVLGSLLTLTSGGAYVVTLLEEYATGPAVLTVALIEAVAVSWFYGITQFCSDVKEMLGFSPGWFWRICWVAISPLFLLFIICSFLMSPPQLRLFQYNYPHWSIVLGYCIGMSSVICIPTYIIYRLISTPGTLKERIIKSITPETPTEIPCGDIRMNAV
T2 sequence (Q63380 1-617): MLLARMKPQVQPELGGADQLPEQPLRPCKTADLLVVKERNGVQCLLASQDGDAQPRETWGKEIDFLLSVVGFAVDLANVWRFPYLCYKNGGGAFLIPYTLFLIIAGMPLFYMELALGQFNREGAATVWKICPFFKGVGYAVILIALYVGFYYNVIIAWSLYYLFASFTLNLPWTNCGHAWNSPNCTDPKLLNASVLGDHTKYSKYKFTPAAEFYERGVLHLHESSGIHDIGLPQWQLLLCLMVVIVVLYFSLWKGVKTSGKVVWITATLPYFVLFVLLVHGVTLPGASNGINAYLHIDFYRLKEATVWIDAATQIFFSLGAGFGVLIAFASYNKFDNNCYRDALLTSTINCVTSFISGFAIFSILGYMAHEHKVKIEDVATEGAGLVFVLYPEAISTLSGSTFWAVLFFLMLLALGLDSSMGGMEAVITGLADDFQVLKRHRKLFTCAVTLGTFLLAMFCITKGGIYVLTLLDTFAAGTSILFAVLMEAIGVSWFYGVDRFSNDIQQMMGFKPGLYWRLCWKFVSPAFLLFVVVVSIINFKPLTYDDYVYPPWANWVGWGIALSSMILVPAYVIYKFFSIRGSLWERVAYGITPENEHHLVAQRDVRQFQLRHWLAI

Row | melting point [°C] | SMILES | 5-HT re-uptake [10 μm], % inhibition (5-HT re-uptake) [%] | NA re-uptake [10 μm], % inhibition (NA re-uptake) [%]
1 | – | CCOC(=O)C12Cc3ccccc3C(CN(C)C1)C2=O (stereo not drawn) [Compound 9, Ethyl-N-methyl-11-oxo-1,3,4,6-tetrahydro-1,5-methano-3-benzazocine-5(2H)-carboxylate hydrochloride] | 77 | 80
2 | 84 to 85 | CCOC(=O)C12Cc3cc(OC)ccc3C(CN(Cc3ccccc3)C1)C2=O (stereo not drawn) | – | –
3 | 199 to 203 | CCOC(=O)C12Cc3ccccc3C(CN(C(=O)Nc3ccccc3)C1)C2=O (stereo not drawn) | – | –
4 | 158 to 160 | CCOC(=O)C12Cc3ccc(C#N)cc3C(CN(Cc3ccccc3)C1)C2=O (stereo not drawn) | – | –
5 | 117 to 119 | CCOC(=O)C12Cc3ccccc3C(CN(Cc3ccccc3)C1)C2=O (stereo not drawn) | – | –
